Measurements taken from ChEMBL document CHEMBL5370557, “Structure-based discovery of IHMT-IDH1-053 as a potent irreversible IDH1 mutant selective inhibitor” (Eur J Med Chem, 2023).
Values belong to the compound of their own block, whether it stands above or below them. Activity calls are given as the source filed them. The calls are words filed in the database; no cut-off is given here.

Columns and labels:
[1] = biological target: T1, Isocitrate dehydrogenase [NADP] cytoplasmic (Homo sapiens, UniProt O75874, R132H); experiment: Inhibition of IDH1 R132H mutant (unknown origin) expressed in HEK293T cells assessed as inhibition of 2-HG generation measured after 48 hrs by LC-MS/MS analysis; type: cell-based
[2] = biological target: T1, Isocitrate dehydrogenase [NADP] cytoplasmic; experiment: Inhibition of IDH1 R132H mutant (unknown origin) expressed in Escherichia coli BL21 (DE3) assessed as NADPH consumption using alpha-KG as substrate measured after 60 mins
[3] = Tmax in Sprague-Dawley rat at 1 mg/kg, iv measured upto 24 hrs by LC-MS/MS analysis; type: ADME, organism-based; details: in vivo
[4] = Half life in Sprague-Dawley rat at 1 mg/kg, iv measured upto 24 hrs by LC-MS/MS analysis; type: ADME, organism-based; details: in vivo
[5] = Cmax in Sprague-Dawley rat at 10 mg/kg, po measured upto 24 hrs by LC-MS/MS analysis; type: ADME, organism-based; set-up: time < 24 hrs, dose 10 mg/kg, route po; details: in vivo
[6] = system: Acute myeloid leukemic cell; experiment: Antiproliferative activity against human primary AML cells expressing IDH1-R132 mutant assessed as cell viability at 0.3 to 10 uM treated for 2 hrs followed by compound removal after 72 hrs by CellTiter-Glo assay; type: functional, cell-based; details: dose 0.3-10 µM
[7] = AUC (0 to t) in Sprague-Dawley rat at 10 mg/kg, po measured upto 24 hrs by LC-MS/MS analysis; type: ADME, organism-based; set-up: time < 24 hrs, dose 10 mg/kg, route po; details: in vivo
[8] = biological target: T1, Isocitrate dehydrogenase [NADP] cytoplasmic; experiment: Reversible binding affinity to IDH1 R132H mutant (unknown origin) expressed in Escherichia coli BL21 (DE3) assessed as inhibition constant
[9] = Apparent volume of distribution in Sprague-Dawley rat at 1 mg/kg, iv measured upto 24 hrs by LC-MS/MS analysis; type: ADME, organism-based; details: in vivo, read-out: Vz
[10] = biological target: Isocitrate dehydrogenase [NADP] cytoplasmic (Homo sapiens, UniProt O75874, R132C); experiment: Inhibition of IDH1 R132C mutant (unknown origin) expressed in Escherichia coli BL21 (DE3) assessed as NADPH consumption using alpha-KG as substrate measured after 60 mins
[11] = Clearance in Sprague-Dawley rat at 10 mg/kg, po measured upto 24 hrs by LC-MS/MS analysis; type: ADME, organism-based; details: in vivo
[12] = biological target: Isocitrate dehydrogenase [NADP] cytoplasmic (Homo sapiens, UniProt O75874); experiment: Inhibition of wild type IDH1 (unknown origin) expressed in Escherichia coli BL21 (DE3) assessed as NADPH consumption using alpha-KG as substrate measured after 60 mins
HT-1080 = experiment: Antiproliferative activity against human HT-1080 cells assessed as cell viability at 0.3 to 10 uM treated for 2 hrs followed by compound removal after 72 hrs by CellTiter-Glo assay; type: functional, cell-based; details: dose 0.3-10 µM
[13] = Cmax in Sprague-Dawley rat at 1 mg/kg, iv measured upto 24 hrs by LC-MS/MS analysis; type: ADME, organism-based; set-up: dose 1 mg/kg, time < 24 hrs, route iv; details: in vivo
[14] = Tmax in Sprague-Dawley rat at 10 mg/kg, po measured upto 24 hrs by LC-MS/MS analysis; type: ADME, organism-based; details: in vivo
[15] = Apparent volume of distribution in Sprague-Dawley rat at 10 mg/kg, po measured upto 24 hrs by LC-MS/MS analysis; type: ADME, organism-based; details: in vivo
[16] = biological target: T2, Isocitrate dehydrogenase [NADP], mitochondrial (Homo sapiens, UniProt P48735); experiment: Inhibition of wild type IDH2 (unknown origin) expressed in Escherichia coli BL21 (DE3) assessed as NADPH consumption using alpha-KG as substrate measured after 60 mins
T2 sequence (P48735 whole entry): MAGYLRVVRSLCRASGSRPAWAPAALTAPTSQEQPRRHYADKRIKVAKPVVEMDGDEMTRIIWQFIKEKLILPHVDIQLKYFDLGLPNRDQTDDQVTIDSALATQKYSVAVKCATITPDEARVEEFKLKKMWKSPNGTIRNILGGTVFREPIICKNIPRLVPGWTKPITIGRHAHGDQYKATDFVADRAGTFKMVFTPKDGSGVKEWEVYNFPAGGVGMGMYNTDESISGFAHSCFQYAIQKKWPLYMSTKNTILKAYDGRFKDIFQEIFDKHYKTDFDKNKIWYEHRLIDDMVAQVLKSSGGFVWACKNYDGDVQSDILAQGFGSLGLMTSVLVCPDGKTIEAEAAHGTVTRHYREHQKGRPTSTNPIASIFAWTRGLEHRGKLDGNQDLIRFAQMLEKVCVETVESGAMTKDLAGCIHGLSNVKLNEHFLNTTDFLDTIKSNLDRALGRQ

[17] = Half life in Sprague-Dawley rat at 10 mg/kg, po measured upto 24 hrs by LC-MS/MS analysis; type: ADME, organism-based; details: in vivo
[18] = In vivo inhibition of IDH1 mutant activity in tumor of human HT-1080 cells xenografted in Balb/c mouse model assessed as reduction in 2-HG level at […], ip single administration measured upto 2 hrs relative to control; type: functional
[19] = biological target: Isocitrate dehydrogenase [NADP], mitochondrial (Homo sapiens, UniProt P48735, R140Q); experiment: Inhibition of IDH2 R140Q mutant (unknown origin) expressed in Escherichia coli BL21 (DE3) assessed as NADPH consumption using alpha-KG as substrate measured after 60 mins
[20] = Oral bioavailability in Sprague-Dawley rat at 10 mg/kg measured upto 24 hrs by LC-MS/MS analysis; type: ADME, organism-based; details: in vivo
[21] = AUC (0 to t) in Sprague-Dawley rat at 1 mg/kg, iv measured upto 24 hrs by LC-MS/MS analysis; type: ADME, organism-based; set-up: dose 1 mg/kg, time < 24 hrs, route iv; details: in vivo
[22] = biological target: Isocitrate dehydrogenase [NADP], mitochondrial (Homo sapiens, UniProt P48735, R172K); experiment: Inhibition of IDH2 R172K mutant (unknown origin) expressed in Escherichia coli BL21 (DE3) assessed as NADPH consumption using alpha-KG as substrate measured after 60 mins
[23] = system: Isocitrate dehydrogenase [NADP] cytoplasmic (Homo sapiens), O75874 [R132H]; experiment: Binding affinity to IDH1 R132H mutant (unknown origin) expressed in Escherichia coli BL21 (DE3) assessed as ratio of Kinact/Ki
[24] = system: Isocitrate dehydrogenase [NADP] cytoplasmic (Homo sapiens), O75874 [R132H]; experiment: Binding affinity to IDH1 R132H mutant (unknown origin) expressed in Escherichia coli BL21 (DE3) assessed as inactivation constant

T1 sequence (O75874 2-414 R132H limits assumed): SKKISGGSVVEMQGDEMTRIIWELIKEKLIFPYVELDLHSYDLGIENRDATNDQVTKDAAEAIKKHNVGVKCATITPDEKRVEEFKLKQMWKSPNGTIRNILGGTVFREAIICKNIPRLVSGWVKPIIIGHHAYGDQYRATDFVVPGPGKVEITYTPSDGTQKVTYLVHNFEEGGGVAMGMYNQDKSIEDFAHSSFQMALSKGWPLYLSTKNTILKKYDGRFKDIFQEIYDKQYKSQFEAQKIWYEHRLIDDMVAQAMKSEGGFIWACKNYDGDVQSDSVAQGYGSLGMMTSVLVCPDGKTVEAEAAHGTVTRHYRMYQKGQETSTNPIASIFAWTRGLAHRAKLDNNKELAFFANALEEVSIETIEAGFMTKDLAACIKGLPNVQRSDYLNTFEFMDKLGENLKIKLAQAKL
Isocitrate dehydrogenase [NADP] cytoplasmic (Homo sapiens), O75874 [R132H], sequence (O75874 whole entry R132H): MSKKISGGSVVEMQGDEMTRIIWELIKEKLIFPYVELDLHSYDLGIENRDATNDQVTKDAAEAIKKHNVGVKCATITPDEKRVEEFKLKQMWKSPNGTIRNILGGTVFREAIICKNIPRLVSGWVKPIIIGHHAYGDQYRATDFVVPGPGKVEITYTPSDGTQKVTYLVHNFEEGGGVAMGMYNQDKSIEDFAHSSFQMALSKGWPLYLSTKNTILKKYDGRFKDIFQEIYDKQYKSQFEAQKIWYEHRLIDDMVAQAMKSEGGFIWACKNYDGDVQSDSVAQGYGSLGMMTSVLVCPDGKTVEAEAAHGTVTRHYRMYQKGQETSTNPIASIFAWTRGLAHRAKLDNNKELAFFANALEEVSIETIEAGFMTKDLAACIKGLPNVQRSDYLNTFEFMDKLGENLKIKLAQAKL
Isocitrate dehydrogenase [NADP], mitochondrial (Homo sapiens, UniProt P48735, R140Q), sequence (P48735 40-452 R140Q limits assumed): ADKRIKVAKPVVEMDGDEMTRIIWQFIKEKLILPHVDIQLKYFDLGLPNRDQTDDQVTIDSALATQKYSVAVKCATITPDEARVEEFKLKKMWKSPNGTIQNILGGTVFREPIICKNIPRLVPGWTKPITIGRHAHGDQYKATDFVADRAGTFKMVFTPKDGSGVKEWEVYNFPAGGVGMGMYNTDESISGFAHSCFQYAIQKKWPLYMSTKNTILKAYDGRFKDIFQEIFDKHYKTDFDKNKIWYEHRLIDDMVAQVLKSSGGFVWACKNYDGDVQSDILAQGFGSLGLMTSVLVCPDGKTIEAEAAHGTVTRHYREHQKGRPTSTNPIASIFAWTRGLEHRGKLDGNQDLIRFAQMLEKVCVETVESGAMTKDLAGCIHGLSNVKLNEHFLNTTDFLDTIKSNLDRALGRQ
Isocitrate dehydrogenase [NADP] cytoplasmic (Homo sapiens, UniProt O75874, R132C), sequence (O75874 2-414 R132C limits assumed): as the sequence (O75874 2-414 R132H limits assumed) above, with H131C counted along it
Isocitrate dehydrogenase [NADP] cytoplasmic (Homo sapiens, UniProt O75874), sequence (O75874 whole entry): as the sequence (O75874 whole entry R132H) above, with H132R counted along it
Isocitrate dehydrogenase [NADP], mitochondrial (Homo sapiens, UniProt P48735, R172K), sequence (P48735 40-452 R172K limits assumed): as the sequence (P48735 40-452 R140Q limits assumed) above, with Q101R, R133K counted along it

IC50 [1]: 288 nM
IC50 [2]: 205 nM
SMILES: C=CC(=O)Nc1cc(Nc2ccc([C@H](C)Nc3ncc(F)c(N4C(=O)OC[C@@H]4C(C)C)n3)cc2)ccc1N1CCOCC1

IC50 [1]: 37 nM
IC50 [2]: 192 nM
SMILES: C=CS(=O)(=O)NC1CCN(c2ccc([C@H](C)Nc3nccc(N4C(=O)OC[C@@H]4C(C)C)n3)cc2)CC1

IC50 [1]: 462 nM
IC50 [2]: 187 nM
SMILES: C=CC(=O)NC1CCN(c2ccc([C@H](C)Nc3ncc(F)c(N4C(=O)OC[C@@H]4C(C)C)n3)cc2)CC1

IC50 [1]: 4750 nM
IC50 [2]: 55 nM
SMILES: C=CS(=O)(=O)Nc1ccc(Nc2ccc([C@H](C)Nc3ncc(F)c(N4C(=O)OC[C@@H]4C(C)C)n3)cc2)cc1OC

IC50 [1]: 10000 nM
IC50 [2]: > 10000 nM
SMILES: CCC(=O)Nc1ccc(Nc2ccc([C@H](C)Nc3ncc(F)c(N4C(=O)OC[C@@H]4C(C)C)n3)cc2)cc1N1CCOCC1

IC50 [2]: 6510 nM
SMILES: C=CC(=O)NC1CCN(c2ccc([C@H](C)Nc3nccc(N4C(=O)OC[C@@H]4C(C)C)n3)cc2)CC1

IC50 [1]: 866 nM
IC50 [2]: 88 nM
SMILES: C=CS(=O)(=O)Nc1ccc(Nc2ccc([C@H](C)Nc3ncc(F)c(N4C(=O)OC[C@@H]4C(C)C)n3)cc2)cc1C

IC50 [1]: 114 nM
IC50 [2]: 155 nM
SMILES: C=CC(=O)Nc1cc(Nc2ccc([C@H](C)Nc3ncc(F)c(N4C(=O)OC[C@@H]4C(C)C)n3)cc2)ccc1N(C)C

IC50 [1]: 126 nM
IC50 [2]: 77 nM
SMILES: CCC(=O)Nc1cc(Nc2ccc([C@H](C)Nc3ncc(F)c(N4C(=O)OC[C@@H]4C(C)C)n3)cc2)ccc1N1CCOCC1

IC50 [1]: 367 nM
IC50 [2]: 151 nM
SMILES: C=CS(=O)(=O)Nc1cc(Nc2ccc([C@H](C)Nc3ncc(F)c(N4C(=O)OC[C@@H]4C(C)C)n3)cc2)ccc1N(C)C

IC50 [2]: 670 nM
SMILES: CCC(=O)NC1CCCN(c2ccc([C@H](C)Nc3ncc(F)c(N4C(=O)OC[C@@H]4C(C)C)n3)cc2)C1 (some centres not stated)

IC50 [2]: 594 nM
SMILES: CCS(=O)(=O)N1CCC(Nc2ccc([C@H](C)Nc3nccc(N4C(=O)OC[C@@H]4C(C)C)n3)cc2)CC1

IC50 [1]: 1500 nM
IC50 [2]: 87 nM
SMILES: C=CS(=O)(=O)Nc1ccc(Nc2ccc([C@H](C)Nc3ncc(F)c(N4C(=O)OC[C@@H]4C(C)C)n3)cc2)cc1N1CCOCC1

Tmax [3]: 1.8 min
t1/2 [4]: 9.6 min
Cmax [5]: 88.1 ng/mL
AUCt [7]: 36.31 ng·h/mL
Ki [8]: 37 nM
Vd [9]: 5.39 L/kg
IC50 [10]: 139 nM
CL/F [11]: 4340 mL/min/kg
IC50 [12]: > 10 µM
Cmax [13]: 199.67 ng/mL
Tmax [14]: 15 min
Vz [15]: 118878 mL/kg
IC50 [16]: > 10 µM
half-life [17]: 18 min
IC50 [19]: > 10 µM
F [20]: 9.26%
AUCt [21]: 267.61 ng·h/mL
IC50 [1]: 28 nM
IC50 [22]: > 10 µM
Ratio [23]: 0.007 µM⁻¹ s⁻¹
Kinact [24]: 0.015 min⁻¹
IC50 [2]: 4.7 nM
SMILES: C=CS(=O)(=O)NC1CCN(c2ccc([C@H](C)Nc3ncc(F)c(N4C(=O)OC[C@@H]4C(C)C)n3)cc2)CC1
Activity [6]: Active
Activity (HT-1080): Active
inhibition (INH) [18]: >85%

IC50 [2]: 541 nM
SMILES: CCS(=O)(=O)NC1CCN(c2ccc([C@H](C)Nc3nccc(N4C(=O)OC[C@@H]4C(C)C)n3)cc2)CC1

IC50 [1]: 1470 nM
IC50 [2]: 143 nM
SMILES: CCS(=O)(=O)NC1CCN(c2ccc([C@H](C)Nc3ncc(F)c(N4C(=O)OC[C@@H]4C(C)C)n3)cc2)CC1

IC50 [2]: 6130 nM
SMILES: C=CC(=O)Nc1ccc(Nc2ccc([C@H](C)Nc3ccc(C#N)cn3)cc2)cc1N(C)C

IC50 [2]: 547 nM
SMILES: C=CS(=O)(=O)Nc1ccc(Nc2ccc([C@H](C)Nc3nccc(N4C(=O)OC[C@@H]4C(C)C)n3)cc2)cc1N1CCN(CC)CC1

IC50 [1]: 864 nM
IC50 [2]: 245 nM
SMILES: C=CS(=O)(=O)Nc1ccc(Nc2ccc([C@H](C)Nc3ncc(F)c(N4C(=O)OC[C@@H]4C(C)C)n3)cc2)cc1N1CCN(CC)CC1

IC50 [1]: 331 nM
IC50 [2]: 976 nM
SMILES: C=CC(=O)Nc1ccc(Nc2ccc([C@H](C)Nc3ncc(F)c(N4C(=O)OC[C@@H]4C(C)C)n3)cc2)cc1N1CCOCC1
